Results published in ChEMBL document CHEMBL5143538, “Discovery, Structure Correction, and Biosynthesis of Actinopyrones, Cytotoxic Polyketides from the Deep-Sea Hydrothermal-Vent-Derived Streptomyces sp. SCSIO ZS0520” (J Nat Prod, 2022).

Experiments:
Format in all cases: functional, cell-based
MDA-MB-231 = assay: Cytotoxicity against human MDA-MB-231 cells assessed as inhibition of cell proliferation measured after 68 hrs by MTT assay; settings: MDA-MB-231, 68 h
HT-29 = assay: Cytotoxicity against human HT-29 cells assessed as inhibition of cell proliferation measured after 68 hrs by MTT assay; settings: HT-29, 68 h
Huh-7 = assay: Cytotoxicity against human Huh-7 cells assessed as inhibition of cell proliferation measured after 68 hrs by MTT assay; settings: Huh-7, 68 h
NCI-H460 = assay: Cytotoxicity against human NCI-H460 cells assessed as inhibition of cell proliferation measured after 68 hrs by MTT assay; settings: NCI-H460, 68 h
A549 = assay: Cytotoxicity against human A549 cells assessed as inhibition of cell proliferation measured after 68 hrs by MTT assay; settings: A549, 68 h
MDA-MB-435 = assay: Cytotoxicity against human MDA-MB-435 cells assessed as inhibition of cell proliferation measured after 68 hrs by MTT assay; settings: MDA-MB-435, 68 h

SMILES | IC50 (MDA-MB-231) [µM] | IC50 (HT-29) [µM] | IC50 (Huh-7) [µM] | IC50 (NCI-H460) [µM] | IC50 (A549) [µM] | IC50 (MDA-MB-435) [µM]
C/C=C(\C)[C@@H](O)[C@@H](C)/C=C(C)/C=C/C[C@H](C)/C=C/c1oc(OC)c(C)c(=O)c1C | > 50 | > 50 | > 50 | > 50 | > 50 | > 50
COc1cccc2c1C(=O)c1c(O)c3c(c(O)c1C2=O)C[C@@](O)(C(=O)CO)C[C@@H]3O[C@H]1C[C@H](N)[C@@H](O)[C@H](C)O1 [EPIRUBICIN] | 1.2 | 3.36 | 9.12 | 0.06 | 1.32 | 0.23
C/C=C(\C)[C@@H](O[C@@H]1O[C@H](CO)[C@@H](O)[C@H](O)[C@H]1O)[C@@H](C)/C=C(C)/C=C/C[C@H](C)/C=C/c1oc(OC)c(C)c(=O)c1C (stereo in doubt) | 1 | 2.22 | 1.18 | 0.66 | 0.75 | 0.26
C/C=C(\C)[C@@H](O)[C@@H](C)/C=C(C)/C=C/C[C@H](C)/C=C/c1oc(=O)c(C)c(O)c1C | > 50 | > 50 | > 50 | > 50 | > 50 | > 50
C/C=C(\C)[C@@H](O)[C@@H](C)/C=C(C)/C=C/C[C@H](C)/C=C/C(=O)CC | > 50 | > 50 | > 50 | > 50 | > 50 | > 50
